Our source for the Binding % values is US10646488B2 (Araxes Pharma LLC, priority 2016, dated 2020).

For one experiment, the target named is T1, KRAS G12C 1-169, his-tagged protein, GDP-loaded (Homo sapiens, UniProt P01116, G12C).
T1 construct: KRAS G12C 1-169, his-tagged protein, GDP-loaded
Briefly: Covalent binding (% modification) to KRAS G12C by mass spectrometry. Further: test concentration or dose not given here. Particulars: covalent binding to KRAS G12C after a ten minute incubation period.
On to `C=CC(=O)N1C[C@@H](C)N(c2nc(N3CC(N(C)C)C3)nc3c(F)c(-c4c(C)ccc5[nH]ncc45)c(Cl)cc23)[C@@H](C)C1` [Compound 40, 1-((3S,5R)-4-(6-chloro-2-(3-(dimethylamino)azetidin-1-yl)-8-fluoro-7-(5-methyl-1H-indazol-4-yl)quinazolin-4-yl)-3,5-dimethyl-piperazin-1-yl) prop-2-en-1-one], for which the Binding % entry was “++ (++ indicates binding activity from 50 to 90%)”.

Turning to `C=CC(=O)N1CCN(c2nc(N3CC(N(C)C)C3)nc3c(F)c(-c4c(O)cccc4F)c(Cl)cc23)C[C@H]1C` (atropisomer, axis not shown) [Compound 61, 1-((R)-4-((R)-6-chloro-2-(3-(dimethylamino)azetidin-1-yl)-8-fluoro-7-(2-fluoro-6-hydroxyphenyl)quinazolin-4-yl)-2-methyl-piperazin-1-yl) prop-2-en-1-one], the Binding % result is given as “+ (+ indicates binding activity up to 50%)”.

For the molecule `C=CC(=O)N1CCN(c2nc(N3CC(N(C)C)C3)nc3c(F)c(-c4c(O)cccc4F)c(Cl)cc23)C[C@H]1C` [Compound 56, 1-((2R)-4-(6-chloro-2-(3-(dimethylamino)azetidin-1-yl)-8-fluoro-7-(2-fluoro-6-hydroxyphenyl)quinazolin-4-yl)-2-methylpiperazin-1-yl)prop-2-en-1-one], the Binding % entry is “+++ (+++ indicates binding activity greater than 90%)”.

In the case of `C=CC(=O)N1C[C@H](C)N(c2nc(OCCN(CC)CC)nc3c(F)c(-c4c(O)cccc4F)c(Cl)cc23)C[C@H]1C` (atropisomer, axis not shown) [Compound 75, 1-((2R,5S)-4-((S)-6-chloro-2-(2-(diethylamino)ethoxy)-8-fluoro-7-(2-fluoro-6-hydroxyphenyl)quinazolin-4-yl)-2,5-dimethyl-piperazin-1-yl) prop-2-en-1-one], the Binding % entry is “+++ (+++ indicates binding activity greater than 90%)”.

For `C=CC(=O)N1CCN(c2nc(N)nc3c(F)c(-c4c(O)cccc4F)c(Cl)cc23)C[C@H]1C` [Compound 1, 1-((2R)-4-(2-amino-6-chloro-8-fluoro-7-(2-fluoro-6-hydroxyphenyl)quinazolin-4-yl)-2-methylpiperazin-1-yl)prop-2-en-1-one], the Binding % result is given as “++ (++ indicates binding activity from 50 to 90%)”.

In the case of `C=CC(=O)N1[C@H](C)CN(c2nc(OCCc3ccccn3)nc3c(F)c(-c4c(O)cccc4F)c(Cl)cc23)C[C@@H]1C` [Compound 36, 1-((2R,6S)-4-(6-chloro-8-fluoro-7-(2-fluoro-6-hydroxyphenyl)-2-(2-(pyridin-2-yl)ethoxy)quinazolin-4-yl)-2,6-dimethyl-piperazin-1-yl) prop-2-en-1-one], the Binding % entry was “++ (++ indicates binding activity from 50 to 90%)”.

As to `C=CC(=O)N1C[C@H](C)N(c2nc(OC3CCN(C(C)C)CC3)nc3c(F)c(-c4c(C)ccc5[nH]ncc45)c(Cl)cc23)C[C@H]1C` [Compound 79, 1-((2R,5S)-4-(6-chloro-8-fluoro-2-((1-isopropyl-piperidin-4-yl)oxy)-7-(5-methyl-1H-indazol-4-yl)quinazolin-4-yl)-2,5-dimethyl-piperazin-1-yl) prop-2-en-1-one], the Binding % entry was “+++ (+++ indicates binding activity greater than 90%)”.

In the case of `C=CC(=O)N1[C@H](C)CN(c2nc(N3CC(N(C)C)C3)nc3c(F)c(-c4c(C)ccc5[nH]ncc45)c(Cl)cc23)C[C@@H]1C` [Compound 39, 1-((2R,6S)-4-(6-chloro-2-(3-(dimethylamino)azetidin-1-yl)-8-fluoro-7-(5-methyl-1H-indazol-4-yl)quinazolin-4-yl)-2,6-dimethyl-piperazin-1-yl) prop-2-en-1-one], the Binding % entry is given as “++ (++ indicates binding activity from 50 to 90%)”.

`C=CC(=O)N1C[C@@H](C)N(c2nc(N3CC(N(C)C)C3)nc3c(F)c(-c4c(O)cccc4F)c(Cl)cc23)C[C@@H]1C` [Compound 81, 1-((2S,5R)-4-(6-chloro-2-(3-(dimethylamino)azetidin-1-yl)-8-fluoro-7-(2-fluoro-6-hydroxyphenyl)quinazolin-4-yl)-2,5-dimethyl-piperazin-1-yl) prop-2-en-1-one]: the Binding % entry is listed as “+ (+ indicates binding activity up to 50%)”.

The experiment is the same for the next values; noted with them: covalent binding to KRAS G12C after a three minute incubation period.
In the case of `C=CC(=O)N1C[C@H](C)N(c2nc(OCCN3CCC(F)(F)C3)nc3c(F)c(-c4c(C)ccc5[nH]ncc45)c(Cl)cc23)C[C@H]1C` [Compound 209, 1-((2R,5S)-4-(6-chloro-2-(2-(3,3-difluoropyrrolidin-1-yl)ethoxy)-8-fluoro-7-(5-methyl-1H-indazol-4-yl)quinazolin-4-yl)-2,5-dimethyl-piperazin-1-yl) prop-2-en-1-one], the Binding % entry is “+++ (+++ indicates binding activity greater than 90%)”.

In the case of `[2H]C([2H])([2H])N(C1CN(c2nc(N3C[C@@H](C)N(C(=O)C=C)C[C@@H]3C)c3cc(Cl)c(-c4c(C)ccc5[nH]ncc45)c(F)c3n2)C1)C([2H])([2H])[2H]` (atropisomer, axis not shown) [Compound 227, 1-((2R,5S)-4-(6-chloro-2-(3-(bis(triduetero-methyl)amino)azetidin-1-yl)-8-fluoro-7-((S)-5-methyl-1H-indazol-4-yl)quinazolin-4-yl)-2,5-dimethyl-piperazin-1-yl) prop-2-en-1-one], the Binding % result is “+ (+ indicates binding activity greater than 0% and up to 50%)”.

As to “1-((2R,5S)-4-(6- chloro-2-(2- (diethylamino) ethoxy)-8-fluoro- 7-((S)-6-methyl- 1H-indazol-7-yl) quinazolin-4-yl)- 2,5-dimethyl- piperazin-1-yl) prop-2-en-1-one [Compound 157]”, the Binding % entry was “+ (+ indicates binding activity greater than 0% and up to 50%)”.

`C=CC(=O)N1CCN(c2nc(OCCN(CC)CC)nc3c(F)c(-c4c(O)cccc4F)c(Cl)cc23)C[C@H]1C` [Compound 85, 1-((2R)-4-(6-chloro-2-(2-(diethylamino)ethoxy)-8-fluoro-7-(2-fluoro-6-hydroxyphenyl)quinazolin-4-yl)-2-methyl-piperazin-1-yl) prop-2-en-1-one]: the Binding % entry is recorded as “++ (++ indicates binding activity from 50 to 90%)”.

With `C=CC(=O)N1C[C@H](C)N(c2nc(N3CC(N(C)C4CC4)C3)nc3c(F)c(-c4c(C)ccc5cn[nH]c45)c(Cl)cc23)C[C@H]1C` [Compound 133, 1-((2R,5S)-4-(6-chloro-2-(3-(cyclopropyl (methyl)amino)azetidin-1-yl)-8-fluoro-7-(6-methyl-1H-indazol-7-yl)quinazolin-4-yl)-2,5-dimethyl-piperazin-1-yl) prop-2-en-1-one], the Binding % result was “++ (++ indicates binding activity from 50 to 90%)”.

As for `C=CC(=O)N1C[C@H](C)N(c2nc(N3CC(N(C)C)C3)nc3c(F)c(-c4c(C)ccc5[nH]ncc45)c(Cl)cc23)C[C@H]1C` (atropisomer, axis not shown) [Compound 130, 1-((2R,5S)-4-(6-chloro-2-(3-(dimethylamino)azetidin-1-yl)-8-fluoro-7-((R)-5-methyl-1H-indazol-4-yl)quinazolin-4-yl)-2,5-dimethyl-piperazin-1-yl) prop-2-en-1-one], the Binding % result is “+++ (+++ indicates binding activity greater than 90%)”.

Take `C=CC(=O)N1C[C@H](C)N(c2nc(N3CC(N(C)C(C)C)C3)nc3c(F)c(-c4c(C)ccc5cn[nH]c45)c(Cl)cc23)C[C@H]1C` [Compound 122, 1-((2R,5S)-4-(6-chloro-8-fluoro-2-(3-(isopropyl (methyl)amino)azetidin-1-yl)-7-(6-methyl-1H-indazol-7-yl)quinazolin-4-yl)-2,5-dimethyl-piperazin-1-yl) prop-2-en-1-one]: the Binding % entry was “++ (++ indicates binding activity from 50 to 90%)”.

With `C=CC(=O)N1C[C@H](C)N(c2nc(N3CC(C)(N(C)C)C3)nc3c(F)c(-c4c(C)ccc5[nH]ncc45)c(Cl)cc23)C[C@H]1C` [Compound 121, 1-((2R,5S)-4-(6-chloro-2-(3-(dimethylamino)-3-methylazetidin-1-yl)-8-fluoro-7-(5-methyl-1H-indazol-4-yl)quinazolin-4-yl)-2,5-dimethyl-piperazin-1-yl) prop-2-en-1-one], the Binding % result was “++ (++ indicates binding activity from 50 to 90%)”.

Turning to `C=CC(=O)N1C[C@H](C)N(c2nc(N3CC(N(C)C(C)C)C3)nc3c(F)c(-c4c(O)cccc4F)c(Cl)cc23)C[C@H]1C` [Compound 99, 1-((2R,5S)-4-(6-chloro-8-fluoro-7-(2-fluoro-6-hydroxyphenyl)-2-(3-(isopropyl (methyl)amino)azetidin-1-yl)quinazolin-4-yl)-2,5-dimethyl-piperazin-1-yl) prop-2-en-1-one], the Binding % result is recorded as “++ (++ indicates binding activity from 50 to 90%)”.

As for `C=CC(=O)N1C[C@H](C)N(c2nc(N3CC(N(C)C)C3)nc3c(F)c(-c4c(F)cccc4F)c(Cl)cc23)C[C@H]1C` [Compound 180, 1-((2R,5S)-4-(6-chloro-7-(2,6-difluorophenyl)-2-(3-(dimethyl-amino)azetidin-1-yl)-8-fluoro-quinazolin-4-yl)-2,5-dimethyl-piperazin-1-yl) prop-2-en-1-one], the Binding % entry was “+ (+ indicates binding activity greater than 0% and up to 50%)”.

Take `C=CC(=O)N1C[C@H](C)N(c2nc(N3CC(N(C)C)C3)nc3c(F)c(-c4cc(B5OC(C)(C)C(C)(C)O5)cc5ccccc45)c(Cl)cc23)C[C@H]1C` [Compound 179, 1-((2R,5S)-4-(6-chloro-2-(3-(dimethylamino)azetidin-1-yl)-8-fluoro-7-(3-(4,4,5,5-tetramethyl-1,3,2-dioxaborolan-2-yl)naphthalen-1-yl)quinazolin-4-yl)-2,5-dimethyl-piperazin-1-yl) prop-2-en-1-one]: the Binding % result was “+ (+ indicates binding activity greater than 0% and up to 50%)”.

For `C#CCN(C)C1CN(c2nc(N3C[C@@H](C)N(C(=O)C=C)C[C@@H]3C)c3cc(Cl)c(-c4c(O)cccc4F)c(F)c3n2)C1` [Compound 93, 1-((2R,5S)-4-(6-chloro-8-fluoro-7-(2-fluoro-6-hydroxyphenyl)-2-(3-(methyl (prop-2-yn-1-yl)amino)azetidin-1-yl)quinazolin-4-yl)-2,5-dimethyl-piperazin-1-yl) prop-2-en-1-one], the Binding % entry was “++ (++ indicates binding activity from 50 to 90%)”.
